Eleven compounds from ChEMBL document CHEMBL4145641, “Identification of Thiourea-Based Inhibitors of the B-Cell Lymphoma 6 BTB Domain via NMR-Based Fragment Screening and Computer-Aided Drug Design” (J Med Chem, 2018) can be followed below.

The test system of one data set is OCI-Ly1. Put plainly: Growth inhibition of human OCI-LY1 cells incubated for 48 hrs by cell-titer-blue dye based assay. Format: functional. The settings on record: OCI-Ly1, 48 h.
Another data set concerns SU-DHL-6. Put plainly: Growth inhibition of human SUDHL6 cells incubated for 48 hrs by cell-titer-blue dye based assay. The format is functional. As to conditions: SU-DHL-6, 48 h.
In another data set the test system is SUD4. The data set can be described thus: Growth inhibition of human SUDHL4 cells incubated for 48 hrs by cell-titer-blue dye based assay. Format: functional. The settings on record: SU-DHL-4, 48 h.
The next data set deals with KARPAS-422. The data set can be described thus: Growth inhibition of human KARPAS422 cells incubated for 48 hrs by cell-titer-blue dye based assay. The format is functional. The settings on record: KARPAS-422, 48 h.
Data set [1] can be described thus: Growth inhibition of human OCI-Ly1-B50 cells incubated for 48 hrs by cell-titer-blue dye based assay. The format is functional.
The next data set relates to OCI-Ly7. The data set can be described thus: Growth inhibition of human OCI-LY7 cells incubated for 48 hrs by cell-titer-blue dye based assay. Format: functional. The settings on record: OCI-Ly7, 48 h.
A further data set has as its system Toledo. The data set can be described thus: Growth inhibition of human Toledo cells incubated for 48 hrs by cell-titer-blue dye based assay. The format is functional.
A short description of data set [2]: Solubility in aqueous solution containing 1% DMSO. Format: physicochemical.
Data set [3] concerns the target B-cell lymphoma 6 protein (Homo sapiens, UniProt P41182). Put plainly: Binding affinity to fluorescently labeled recombinant BCL6 BTB domain (unknown origin) expressed in Escherichia coli BL21 (DE3) incubated for 10 mins by microscale thermophoresis method. (In general: Microscale thermophoresis detects binding through changes in fluorescence in a small temperature gradient.)

Turning to `CN1CCN(Cc2cn(CC(=O)N3CCOCC3)c3cc(NC(=S)NCCc4c[nH]c5ccccc45)ccc23)CC1`, the GI50 (commonly the concentration that inhibits growth by half) in the data set with OCI-Ly1 was greater than 500 µM; in the data set with SU-DHL-6, greater than 500 µM; in the data set on SUD4, greater than 500 µM; in the data set on KARPAS-422, greater than 500 µM; in data set [1], greater than 500 µM; with OCI-Ly7, 193 µM. Besides, the 50% growth inhibitory concentration (GI50) in the data set on Toledo was greater than 500 µM. Further, the solubility – broadly, how much of the substance goes into solution per volume – in data set [2] is greater than 1000 µM.

Regarding `CC[C@H](C)[C@H](NC(=O)[C@H](CCC(=O)O)NC(=O)[C@H](Cc1cnc[nH]1)NC(=O)[C@H](NC(=O)[C@H](CO)NC(=O)[C@H](CCCNC(=N)N)NC(=O)CNC(=O)[C@H](C)NC(=O)[C@H](CCC(=O)O)NC(=O)[C@H](CCCCN)NC(=O)[C@@H](NC(=O)[C@@H](NC(=O)[C@H](C)NC(=O)[C@@H](NC(=O)[C@@H](N)CC(C)C)C(C)C)[C@@H](C)O)C(C)C)[C@@H](C)CC)C(=O)N1CCC[C@@H]1C(=O)N[C@@H](CCCNC(=N)N)C(=O)O`, the Kd – broadly, the concentration at which binding is half-saturated – in data set [3] stood at 30 µM.

`CCN(CC)C(=O)Cn1cc(CN2CCN(C)CC2)c2ccc(NC(=S)NCCc3c[nH]c4ccccc34)cc21` showed a solubility in [2] greater than 1000 µM.

In the case of `O=C(O)CNC(=O)Cn1ccc2ccc(NC(=S)NCCc3c[nH]c4ccccc34)cc21`, the GI50 (in the data set with OCI-Ly1; in the data set on SU-DHL-6; in the data set on SUD4; with KARPAS-422; in [1]; in the data set on OCI-Ly7) was greater than 500 µM in each case. The GI50 in the data set with Toledo was greater than 500 µM.

Take `CC(C)NC(=O)Cn1cc(CN2CCN(C)CC2)c2ccc(NC(=S)NCCc3c[nH]c4ccccc34)cc21`: the GI50 (in the data set with OCI-Ly1; with SU-DHL-6; with SUD4; with KARPAS-422; in [1]; in the data set with OCI-Ly7) was greater than 500 µM each time. In addition, the GI50 in the data set on Toledo was greater than 500 µM. The same compound showed a solubility in [2] greater than 1000 µM.

As to `COC(=O)Cn1cc(CN2CCN(C)CC2)c2ccc(NC(=S)NCCc3c[nH]c4ccccc34)cc21`, the GI50 was greater than 500 µM in the data set on OCI-Ly1; 100 µM in the data set on SU-DHL-6; greater than 500 µM in the data set with SUD4; greater than 500 µM in the data set with KARPAS-422; greater than 500 µM in [1]; greater than 500 µM in the data set with OCI-Ly7. In the data set on Toledo, this compound returned a GI50 greater than 500 µM.

As for `CN1CCN(Cc2cn(CC(=O)NCC(=O)O)c3cc(NC(=S)NCCc4c[nH]c5ccccc45)ccc23)CC1`, the 50% growth inhibitory concentration (GI50) (in the data set on OCI-Ly1; in the data set on SU-DHL-6; in the data set on SUD4; in the data set on KARPAS-422; in data set [1]; in the data set on OCI-Ly7) was greater than 500 µM throughout. The same compound gave a GI50 in the data set on Toledo greater than 500 µM. Further, the solubility in data set [2] was greater than 1000 µM.

For `CN1CCN(Cc2cn(CC(=O)N3CCCCC3)c3cc(NC(=S)NCCc4c[nH]c5ccccc45)ccc23)CC1`, the GI50 with OCI-Ly1 was 100 µM; with SU-DHL-6, 60 µM; in the data set on SUD4, 103 µM; in the data set on KARPAS-422 it was greater than 500 µM; in data set [1], greater than 500 µM; in the data set with OCI-Ly7 it was 33 µM. The compound also displayed a GI50 with Toledo greater than 500 µM. In [2], the solubility is greater than 1000 µM.

With `CN1CCN(Cc2cn(CC(=O)N3CCN(C)CC3)c3cc(NC(=S)NCCc4c[nH]c5ccccc45)ccc23)CC1`, in [2], the solubility was greater than 1000 µM.

For `CC1CN(C(=O)Cn2cc(CN3CCN(C)CC3)c3ccc(NC(=S)NCCc4c[nH]c5ccccc45)cc32)CCO1` (racemic), the GI50 is greater than 500 µM with OCI-Ly1; greater than 500 µM in the data set on SU-DHL-6; greater than 500 µM with SUD4; greater than 500 µM in the data set with KARPAS-422; greater than 500 µM in [1]; 116 µM with OCI-Ly7. In the data set on Toledo, this compound came in with a GI50 greater than 500 µM. Also, the solubility in data set [2] was greater than 1000 µM.

Compound `CCOC(=O)CNC(=O)Cn1cc(CN2CCN(C)CC2)c2ccc(NC(=S)NCCc3c[nH]c4ccccc34)cc21` gave a solubility in data set [2] greater than 1000 µM.
